Where two headings read alike, the source gives them in different places.
How the values were obtained:
CD1 mice = conditions: mouse, in vivo, sc
human DOP receptor [1] = biological target: T1, human DOP receptor (Homo sapiens, UniProt P41143); conditions: CHO-hDOP membranes; ref 9a; read-out: receptor binding affinity Ki DOP; cited from earlier work
T1 construct: expressed in transfected cells; host or cells: CHO-hDOP cells (gift of Dr. Lawrence Toll, SRI International)

[2] = tested on: acetic acid-induced writhing in CD1 mice; conditions: mouse, in vivo, sc; cited from earlier work
mice = conditions: icv, ref 9d; cited from earlier work
[3] = tested on: acetic acid-induced writhing in CD1 mice; test: Acetic acid-induced writhing assay in mice after sc administration; type: in vivo; conditions: for ED50: Mus musculus, 0.5 h, CD1 mice, inhibition of writhing at 30 min after drug administration, read-out: antinociceptive ED50 (95% CI)
Description: Male CD1 mice (30–35 g, 6–8 weeks old) were obtained from the Center of Biomodels and Experimental Medicine (CBEM) (Innsbruck, Austria) or Charles River (Sulzfeld, Germany). Mice were group-housed in a temperature controlled room with a 12 h light/dark cycle and with free access to food and water. All animal studies were conducted in accordance with ethical guidelines and animal welfare standards according to Austrian regulations for animal research and were approved by the Committee of Animal Care of the Austrian Federal Ministry of Science and Research. Solutions of test compounds were prepared as 1% DMSO solutions in sterile physiological 0.9% saline and further diluted to working doses in saline solution. Test compounds or vehicle (saline) were administered by sc route in a volume of 10 μL/1 g of body weight. All doses are expressed in terms of salts. Separate groups of mice received the respective dose of compound, and individual mice were only used once for behavioral testing. Each experimental group included at least five animals.
Writhing was induced in male CD1 mice by intraperitoneal (ip) injection of a 0.6% acetic acid aqueous solution as described previously.[9a] Groups of mice were administered sc different doses of test compound or saline (control), and then 5 min prior to testing (25 min after drug or saline) each animal received an ip injection of acetic acid solution. Each mouse was placed in individual transparent Plexiglas chambers, and the number of writhes was counted during a 10 min observation period. […] For the antagonism studies, nor-BNI (20 mg/kg) was sc administered 24 h before 2 (5 mg/kg) and 17 (10 mg/kg) was sc administered 15 min before U50,488 (2 mg/kg).

human KOP receptor [4] = biological target: T2, human KOP receptor (Homo sapiens, UniProt P41145); conditions: ref 9a, cited from earlier work
T2 construct: expressed in transfected cells; host or cells: CHO-hKOP cells (gift of Dr. Lawrence Toll, SRI International)

human KOP receptor [5] = biological target: T2, human KOP receptor; conditions: percentage stimulation relative to the KOP full agonist U69,593; ref 9a; cited from earlier work
human KOP receptor [6] = biological target: T2, human KOP receptor; test: Competition binding assay, CHO-hKOP cell membranes, [3H]U69,593; conditions: CHO-hKOP membranes; mean ± SEM; read-out: receptor binding affinity Ki KOP
Description: (§1) CHO cells stably expressing recombinant human KOP, MOP, or DOP receptors (CHO-hKOP, CHO-hMOP, and CHO-hDOP cell lines) were kindly provided by Dr. Lawrence Toll (SRI International, Menlo Park, CA). The CHO-hKOP cell line was maintained in Dulbecco’s Minimal Essential Medium (DMEM) supplemented with fetal bovine serum (FBS, 10%), penicillin/streptomycin (0.1%), L-glutamine (2 mM), and geneticin (400 μg/mL). The CHO-hMOP and CHO-hDOP cell lines were maintained in DMEM/Ham’s F-12 medium supplemented with FBS (10%), penicillin/streptomycin (0.1%), L-glutamine (2 mM), and geneticin (400 μg/mL). Cell cultures were maintained at 37 °C in 5% CO2 humidified air.
(§2) Nonspecific binding was determined using 1–10 μM of the unlabeled counterpart of each radioligand. Assays were performed in 50 mM Tris-HCl buffer (pH 7.4) in a final volume of 1 mL. Cell membranes (15–20 μg) were incubated with the appropriate radioligand and various concentrations of test compound for 60 min at 25 °C. After incubation, reactions were terminated by rapid filtration through Whatman glass fiber filters. Filters were washed three times with 5 mL of ice-cold 50 mM Tris-HCl buffer (pH 7.4) using a Brandel M24R cell harvester (Gaithersburg, MD). Radioactivity retained on the filters was counted by liquid scintillation counting using a Beckman Coulter LS6500 (Beckman Coulter Inc., Fullerton, CA). All binding experiments were performed in duplicate and repeated at least three times. The inhibitory constant Ki values (in nM) were calculated from the competition binding curves by nonlinear regression analysis and the Cheng–Prusoff equation.[16]

human MOP receptor = biological target: T3, human MOP receptor (Homo sapiens, UniProt P35372); test: Competition binding assay, CHO-hMOP cell membranes, [3H]DAMGO; conditions: mean ± SEM, read-out: receptor binding affinity Ki MOP
T3 construct: expressed in transfected cells; host or cells: CHO-hMOP cells (gift of Dr. Lawrence Toll, SRI International)
Description: as §1
as §2, with “. Nonspecific” for “Nonspecific”

human DOP receptor [7] = biological target: T1, human DOP receptor; test: Competition binding assay, CHO-hDOP cell membranes, [3H]diprenorphine; conditions: mean ± SEM, read-out: receptor binding affinity Ki DOP
Description: as §1
as §2, with “. Nonspecific” for “Nonspecific”

human KOP receptor [8] = biological target: T2, human KOP receptor; test: [35S]GTPγS binding assay using CHO-hKOP cell membranes; type: biochemical
Description: The binding of [^35S]GTPγS to membranes from CHO cells stably expressing human KOP receptors (CHO-hKOP cells) was conducted according to the published procedures.[9a],[9b] CHO-hKOP cell membranes were prepared in buffer A (20 mM HEPES, 10 mM MgCl2, and 100 mM NaCl, pH 7.4). Cell membranes (8–15 μg) in buffer A were incubated with 0.05 nM [^35S]GTPγS, 10 μM GDP, and various concentrations of test compound in a final volume of 1 mL for 60 min at 25 °C. Nonspecific binding was determined using 10 μM GTPγS, and the basal binding was determined in the absence of test ligand. Samples are filtered over glass fiber filters and counted as described for binding assays. […] To determine the KOP antagonist activity, a concentration–response curve for U69,593 was obtained by assessing the [^35S]GTPγS binding to CHO-hKOP cell membranes in the presence or absence of test compound, as previously described.[9b] For each compound, the Schild analysis was conducted, utilizing a full agonist–dose response curve in the presence of at least two concentrations of the antagonist. The equilibrium dissociation constant (Ke) was calculated from the equation Ke = [a]/(DR – 1), where “a” is the concentration of antagonist and DR the virtual shift of the agonist concentration–response curve to the right in the presence of a given concentration of antagonist. All experiments were performed in duplicate and repeated at least three times.

Row | Compound | effect on rotarod performance (evoked locomotor activity) (CD1 mice) | Ki (human DOP receptor [1]) [µM] | antinociceptive ED50 (95% CI) [2] | antinociceptive potency compared to U50,488 (mice) | ED50 ([3]; sc) [mg/kg] | antagonism by nor-BNI of the antinociceptive effect ([3]; nor-BNI 20 mg/kg sc 24 h before agonist (2: 5 mg/kg; 3: 1 mg/kg; 4: […] sc)) | inhibition of the writhing response ([3]; sc, different doses, 30 min after drug administration) | selectivity DOP/KOP (human KOP receptor [4]; Ki ratio DOP/KOP) | selectivity MOP/KOP (human KOP receptor [4]; Ki ratio MOP/KOP) | [35S]GTPγS KOP % stim (human KOP receptor [5]) [%] | Ki (human KOP receptor [6]) [nM] | Ki (human MOP receptor) [nM] | Ki (human DOP receptor [7]) [µM] | EC50 (human KOP receptor [8]; CHO-hKOP membranes, mean ± SEM) [nM] | Emax (human KOP receptor [8]; percentage stimulation relative to the KOP full agonist U69,593, read-out: [35S]GTPγS KOP % stim) [%] | effect on rotarod latencies (motor behavior) (CD1 mice; 7.5 mg/kg)
1 | Oc1cccc(CCN(CCc2ccccc2)CC2CCC2)c1 [Compound 1] | did not affect the evoked locomotor activity | > 10 | 1.91 (1.02–3.58) mg/kg | 2 fold | – | – | – | – | – | – | – | – | – | – | – | –
2 | Oc1cccc(CCN(CCc2ccccc2)CC2CC2)c1 [Compound 2] | did not affect the evoked locomotor activity | > 10 | – | equipotent | 3.23 | blocked by nor-BNI | Dose-dependent inhibition of the writhing response | >1700 | 140 | 53.4 ± 8.1 | – | – | – | – | – | –
3 | Cl.Oc1cccc(CCN(CCc2ccccc2)CC2CCCCC2)c1F [Compound 19, 3-[2-[(Cyclohexylmethyl)(phenethyl)amino]ethyl]-2-fluorophenol Hydrochloride] | – | – | – | – | 1.33 | – | – | – | – | – | 0.04 ± 0.006 | 851 ± 292 | > 10 | 2.77 ± 0.29 | ≥ 80 | no significant alterations in rotarod latencies
